Data taken from patent US20250017856A1, “CO-FORMULATION AND CO-DELIVERY OF IONIZABLE COLLOID FORMING DRUGS WITH NUCLEIC ACIDS” (THE GOVERNING COUNCIL OF THE UNIVERSITY OF TORONTO, priority 2023, published 2025).
“And” between values parts separate entries of the source, which are not always exact repeats. Equal entries are not always repeated. One block for each compound: values may come before it.

What was measured:
[1] = Hydrodynamic diameter and polydispersity index by dynamic light scattering; type: physicochemical; settings: for Hydrodynamic diameter (nm) / PDI: FxNP
From the text: (§1) [NT] antisense (SEQ ID NO: 2): [NT] where “d” denotes a DNA base), siFLuc-2 (sense (SEQ ID NO: 3): [NT] antisense (SEQ ID NO: 4): [NT] where “d” denotes a DNA base and “m” indicates a 2'-O-methyl RNA base), sinLuc (sense (SEQ ID NO: 5): [NT] antisense SEQ ID NO: 6): [NT] where “d” denotes a DNA base), […]1 (sense (SEQ ID NO: 7): [NT] antisense (SEQ ID NO: 8): [NT] where “d” denotes a DNA base and “m” indicates a 2'-O-methyl RNA base), siNT (sense (SEQ ID NO: 9): [NT] antisense (SEQ ID NO: 10): [NT] where “d” denotes a DNA base and “m” indicates a 2'-O-methyl RNA base), mFLuc (EZ Cap Firefly Luciferase mRNA (5-moUTP), ApexBio), rRNA or RNA from Torula utilis yeast (T.U. RNA) was diluted in citrate buffer (50 or 25 mM, pH 4), malate buffer (25 mM, pH 4.0) or acetate buffer (25 mM, pH 4.0). A lipid/drug mix concentration of 5.5 mM was used with a total flow rate of 9 mL/min at a 3:1 ratio of aqueous to organic phase. […] After formulation, buffer exchange into PBS or Tris-buffered saline (TBS; pH 8.5) was performed using Amicon Ultra-4 centrifugal filters (molecular weight cut-off 10 kDa). Hydrodynamic diameter, polydispersity index (PDI), and scattering intensity were measured by dynamic light scattering (DLS) using a DynaPro Plate Reader II (Wyatt Technologies). The instrument was configured with a 60 mW 830 nm laser and a detector angle of 158°. A 25 μL sample of each formulation was pipetted into each well of a 384-well plate and measured with 20 acquisitions per sample at 25° C. […] Quant-iT RiboGreen reagent was added, and fluorescence intensity was quantified using a Tecan Infinite […] plate reader.

[2] = RNA encapsulation efficiency (modified Quant-iT RiboGreen assay) and loading; type: physicochemical; settings: for Encapsulation efficiency (%) / Small molecule drug mass % / siRNA mass %: FxNP
From the text: as §1

[3] = Zeta potential (Malvern Zetasizer); type: physicochemical; settings: FxNP
Method: Zeta potential was measured by diluting FXNPs in phosphate to an ion concentration of 1 mM and using a Malvern Zetasizer Nano ZS instrument.

[4] = system: firefly luciferase expression in mouse liver; test: In vivo liver bioluminescence after i.v. injection of mFLuc nanoparticles; design: species or system BALB/c mice; settings: tail vein, 1 mg/kg mRNA, 4 and 24 h
Method: Animal study protocols were approved by the Animal Care Committee at the University of Toronto and experiments were performed in accordance with the Guide to Care and Use of Experimental Animals (Canadian Council on Animal Care). FXNPs with encapsulated mFLuc and DIR (0.5 mol %) were administered (1 mg/kg in terms of mRNA) via tail vein injection to BALB/c mice. After 4 h and 24 h, mice were anesthetized using isoflurane and injected intraperitoneally with 150 mg/kg VivoGlo™ luciferin (Promega, Madison, WI). Whole-body luminescence was acquired by a PerkinElmer In-Vivo Imaging System Spectrum instrument after 10-20 minutes.

FLuc in SKOV3-FLuc cells = test: Model gene knockdown, firefly luciferase; type: cell-based
Method: For single-dose studies, 5×10^3 SKOV3-FLuc or 2×10^3 Vero-nLucP cells in 100 μL were plated in each well of a white-wall 96-well plate (Costar 3610) and allowed to adhere overnight. FXNP suspensions were diluted in PBS and 10 μL of each tested formulation was dosed in triplicate, followed by 100 μL of complete cell growth media to promote mixing. The final encapsulated siRNA concentration in each well was 50.0 nM. For dose-response studies, 1.25×10^3 SKOV3-FLuc cells in 25 μL were plated in each well of a white-wall 384-well plate (Greiner Bio-one 781073) and allowed to adhere overnight. Nanoparticle suspensions were diluted in PBS and 5 μL of each tested formulation was dosed in triplicate, followed by 20 μL of complete cell growth media to promote mixing. The final encapsulated siRNA concentration in each well is specified in each figure. For all studies, the plate was incubated for 24 h followed by removal of the media. For SKOV3-FLuc cells, fresh media was added, and the plate was incubated for an additional 24 h before removal of the media. Total cellular metabolic activity was quantified by addition of PrestoBlue™ according to the manufacturer's instructions, after which the reagent was subsequently removed, and expression of either firefly luciferase (SKOV3-FLuc) or nano luciferase (Vero-nLucP) was determined by Steady-Glo® Luciferase Assay System or Nano-Glo® Luciferase Assay System, respectively. Luminescence was measured using a Tecan Infinite Pro 200 plate reader. Cell metabolic activity and reporter gene expression are represented relative to cells treated with an equivalent volume of PBS. Reporter gene expression is normalized to cell metabolic activity. For dose-response studies, IC50 values were determined by non-linear regression analysis using eq. 3

SKOV3 cells = test: Cellular uptake of DiD-labelled nanoparticles by fluorescence microscopy; type: cell-based; settings: with DOPC or DSPE; 20 nM T.U. RNA, 3 h
Method: 2.5-5.0×10^3 SKOV3 cells or 1.0×10^4 T47D cells in 25 μL were plated in each well of a 384-well plate (Greiner Bio-One 781097) and allowed to adhere overnight. For endocytosis blocking studies, cells were washed once with Hank's Balanced Salt Solution (HBSS), and then fresh media containing an endocytosis blocker was added and plates were incubated at 37° C. for 30 min prior to dosing. For ApoE supplementation studies and endocytosis-blocking studies, serum free media, serum free media supplemented with ApoE (1.5 μg/mL), complete media, or complete media with hydroxydynasore (20 μM) was added for 30 min prior to dosing). […] The plate was incubated at 37° C. for 3 h after which the media was removed, and the cells were washed with HBSS, fixed for 15 min with 4% (m/v) PFA in PBS, and stained for 15 min with 5 μg/mL Hoechst in PBS before imaging by wide-field fluorescence microscopy imaging as described below.
Fluorescence images were acquired using a Zeiss Apotome Live Cell System (Axio Observer Z.1 inverted fluorescence microscope) with a long working distance 40× Plan Neofluor objective (NA=0.6, Carl Zeiss Canada), and X-Cite 120 LED fluorescence lamp (Lumen Dynamics), and an […]

T47D-R cells = test: Confirmation of palbociclib resistance; type: cell-based; settings: Homo sapiens; palbociclib-resistant T47D cells (T47D-R)
Method: SKOV3 cells were obtained from ATCC. SKOV3-luc cells were obtained from Cell Biolabs. Vero-E6-nLucP cells were a generous gift from Roman Melnyk. T47D cells were a gift from B. Neel (University Health Network). Palbociclib-resistant T47D cells (T47D-R) were developed by dose escalation of palbociclib up to 500-1000 nM over 6-12 months and was confirmed by a palbociclib IC50 greater than […]. Parental T47D cells (T47D-P) were cultured over the same time frame without palbociclib treatment. Cells were maintained in a humified incubator at 37° C. with 5% atmospheric CO2. RPMI 1640 (SKOV3, T47D) or EMEM (Vero-E6) were used as a base media. Cells were grown in 75 cm^2 tissue culture flasks with 10 mL of media supplemented with 10% FBS, 10 UI/mL penicillin and 10 μg/mL streptomycin. The cells were passaged once per week following detachment with trypsin-EDTA, replacement of the supernatant with fresh media, and subculture into a new flask with fresh media. Subculture ratios between 1:4 and 1:50 were used.

[5] = ionizable compound (fulvestrant analog); cited from earlier work
[6] = no cholesterol versus standard formulation

Hydrodynamic diameter (nm) ([1]; siFLuc, DSPC): 204.7 nm
PDI ([1]; siFLuc, DSPC): 0.102
encapsulation and loading efficiencies of siRNA (in words) ([2]; DSPC formulations): low
Encapsulation efficiency (%) ([2]; siFLuc, DSPC): 14.5%
Small molecule drug mass % ([2]; siFLuc, DSPC): 52.8%
siRNA mass % ([2]; siFLuc, DSPC): 0.9%
Zeta potential (mV) ([3]; siFLuc, DSPC): −19.23 mV
SMILES: C[C@]12CC[C@@H]3c4ccc(O)cc4C[C@@H](CCCCCCCCC[S+]([O-])CCCC(F)(F)C(F)(F)F)[C@H]3[C@@H]1CC[C@@H]2O (some centres unmarked) [FV, fulvestrant, reference compound]
liver bioluminescence [4]: did not show bioluminescence above the baseline

IC50 (FLuc in SKOV3-FLuc cells; 50:0 netarsudil:SM-102, narrowed concentration range (<2 nM)): > 2 nM
IC50 (FLuc in SKOV3-FLuc cells; TBS, 40 mol % netarsudil with 10 mol % ALC-0315): 0.32 nM
IC50 (FLuc in SKOV3-FLuc cells; TBS, 40 mol % netarsudil with 10 mol % MC3): 0.77 nM
IC50 (FLuc in SKOV3-FLuc cells; TBS, 40 mol % netarsudil with 10 mol % SM-102): 0.16 nM
IC50 (FLuc in SKOV3-FLuc cells; neutralized in TBS, 50 mol % netarsudil, no ionizable lipid): 3.8 nM
SMILES: Cc1ccc(C(=O)OCc2ccc([C@@H](CN)C(=O)Nc3ccc4cnccc4c3)cc2)c(C)c1 [netarsudil]

increase in particle size on removal of cholesterol [1, 6]: 4 fold
particle size ([1]; siRNA, standard formulation): ~100 nm
siRNA encapsulation efficiency ([2]; natively ionizable drug in place of fulvestrant analog, standard formulation): ~85% and ~95%
loss of encapsulated siRNA on removal of cholesterol [2, 6]: ~70%
SMILES: Fc1ccc(-n2cc(CCCCN3CCC4(CC3)OCc3ccccc34)c3ccccc32)cc1 [siramesine, reference compound]
nanoparticle formation with RNA cargos of varying molecular weight ([2]; siRNA, T.U. RNA, rRNA, mRNA): form nanoparticles encapsulating a range of RNA cargos
uptake relative to DSPC-based nanoparticles (SKOV3 cells): significantly improve uptake

SMILES: CCCCCCCCCCCOC(=O)CCCCCN(CCO)CCCCCCCC(=O)OC(CCCCCCCC)CCCCCCCC [SM-102]
effect of removing netarsudil without replacement (FLuc in SKOV3-FLuc cells; netarsudil:SM-102 0:10): decrease in potency and loss of encapsulated siRNA
change of IC50 on replacing all of the netarsudil with SM-102 (FLuc in SKOV3-FLuc cells; netarsudil:SM-102 0:50): non-significant decrease in IC50

IC50 (T47D-R cells): > 1000 nM
SMILES: CC(=O)c1c(C)c2cnc(Nc3ccc(N4CCNCC4)cn3)nc2n(C2CCCC2)c1=O [palbociclib]

Hydrodynamic diameter (nm) ([1]; siFLuc, DOPC): 199.0 nm
PDI ([1]; siFLuc, DOPC): 0.066
Hydrodynamic diameter (nm) ([1]; siFLuc, DSPC): 154.9 nm
PDI ([1]; siFLuc, DSPC): 0.036
Hydrodynamic diameter (nm) ([1]; sinLuc, DOPC): 224.8 nm
PDI ([1]; sinLuc, DOPC): 0.093
Encapsulation efficiency (%) ([2]; siFLuc, DOPC): 80.3%
Small molecule drug mass % ([2]; siFLuc, DOPC): 56.5%
siRNA mass % ([2]; siFLuc, DOPC): 4.0%
Encapsulation efficiency (%) ([2]; siFLuc, DSPC): 88.3%
Small molecule drug mass % ([2]; siFLuc, DSPC): 56.3%
siRNA mass % ([2]; siFLuc, DSPC): 4.4%
Encapsulation efficiency (%) ([2]; sinLuc, DOPC): 76.4%
Small molecule drug mass % ([2]; sinLuc, DOPC): 56.6%
siRNA mass % ([2]; sinLuc, DOPC): 3.8%
Zeta potential (mV) ([3]; siFLuc, DOPC): −8.00 mV
Zeta potential (mV) ([3]; siFLuc, DSPC): −11.83 mV
Zeta potential (mV) ([3]; sinLuc, DOPC): −14.27 mV
SMILES: CC12CCC3c4ccc(O)cc4CC(CCCCCCCCCS(=O)(CCCC(F)(F)C(F)(F)F)=NC(=O)CCN4CCOCC4)C3C1CCC2O (centres unmarked) [7d]
pKa [5]: 5.7
